According to patent publication US4738803A, “Amino acid derivatives and their use as antidepressives and hypotensive agents” (priority 1981, dated 1988):
Like-named read-outs stand apart in the source and are kept apart here.

Key:
enkephalinase = assay: Dosage of enkephalinasic (enkephalin dipeptidylcarboxypeptidasic) activity, effect of the inhibitors (striatal membrane fraction); format: biochemical, rat or mouse; details: 10 nM leucine-enkephalin ^3H, 0.1 mM puromycine, pH 7.4, 25° C, 15 min; read-out: 50% inhibitory concentration
Method: (I) Dosage of the "enkephalinasic" activity (enkephalin dipeptidylcarboxypeptidasic) and determination of the effect of the inhibitors
The enzyme preparation employed is a membrane fraction from the striatum of the rat or mouse.
This fraction is obtained by homogenization at 4° C. in 20 volumes of Tris-Hl buffer 0.05M (pH 7.4) followed by two successive centrifugations (1000 g×min. and 200,000 g×min.) at the end of which the sediment of the second centrifugation is retained. It is washed by resuspension in 10 ml of the buffer followed by centrifugation (200,000 g×min.) and the resulting sediment is in turn washed superficially to complete the removal soluble enzymes. The resulting membrane fraction is taken up into the buffer at 4° C. to obtain a suspension comprising about 1.5 mg of proteins per ml.
An aliquot sample (50 μl) of the membrane suspension is then incubated in a final volume of 100 μl at 25° C. in the presence of 10 nM leucine-enkephalin ^3 H (39 Ci/mmole), previously purified by column chromatography over Porapak Q(100-120 mesh, Waters Assoc.) and 0.1 mM puromycine, an aminopeptidase inhibitor. The incubation time is generally set at 15 min. so as to determine the initial rate of formation of tripeptide Tyr-Gly-Gly-^3 H caracteristic of the enkephalin dipeptidylcarboxypeptidasic (enkephalinasic) activity. The reaction is terminated by the addition of 25 μl of 0.2N HCl and the tripeptide is isolated by column chromatography over Polopak Q or on a thin layer of silica, according to the methods described by Malfroy et al (B. Malfroy, J. P. Swerts, C. Llorens and J. C. Schwartz, Neuro-Science Letters, 11, 329, 1979).
The results obtained with either method have always been consistent.
Determination of the radioactivity of the tripeptide is effected by liquid scintillation spectrometry.
The effect of the inhibitors is established by experiments with increasing concentrations of such materials, which leads to the determination of the 50% inhibitory concentrations calculated by means of data according to the method of Parker and Waud (J. Pharmacol. Exper. Ther. 177, 1, 1971). In some cases, the competitive nature of the inhibition was established by incubation experiments with a fixed concentration of the inhibitor and increasing concentrations of the substrate.

[1] = system: licking reflex of mice on a plate heated at 55° C; assay: Hot plate test: potentiation of the antalgic effect of D Ala2 Met Enkephalin; format: in vivo; details: for increase in the licking time with respect to animals treated with DAla2 Met Enkephalin (0.3γ intraventricular): 30 mg/kg intravenous; for antagonism of the potentiating effect by Naloxone / potentiation of the effect of a subactive dosage (0.3γ) of D Ala2 Met Enkephalin: 30γ, in words; for potentiation of the effect of a subactive dosage (0.3γ) of D Ala2 Met Enkephalin: p<0.05
Method: (§1) Licking reflex of mice on a plate heated at 55° C. according to the method of Jacob et co-workers (Arch. Int. Pharmacodyn. 122, 287-300, 1959: 133, 296-300, 1961).
(a) Potentiation of the antalgic effect of DAla2 Met Enkephalin:
(α) By the intraventricular route (ivt):
(β) By the intravenous route:
When administered by the intravenous route, the derivatives No. 2, 30 and 63 at the dose of 30 mg/kg produce a 100% increase in the licking time with respect to animals treated with DAla2 Met Enkephalin (0.3γ intraventricular).

[2] = system: withdrawal of the tail of mice; assay: Withdrawal of the tail immersed in water heated to 48° C; format: in vivo
Method: (2) Test in mice of the withdrawal of the tail immersed in water heated to 48° C. according to the method of Sewell and Spencer (Neuropharmacology, 1976, 15, p. 683-688).

[3] = system: phenylbenzoquinone-induced pain; assay: Phenylbenzoquinone or "writhing" test; format: in vivo, mouse; details: for protection from phenylbenzoquinone-induced pain: p<0.01 versus controls
Excerpt: (3) Phenylbenzoquinone or "writhing" test according to the method of Siegmund and co-workers (Proc. Soc. Expert Biol. Med. 1957, 95, 729-731).
Here again, if the antinociceptive effects of these compounds are compared with those of Thiorphan, a selective enkephalinase-inhibitor, a distinctly greater maximum effect is observed. […] This more pronounced analgesic effect is attributable to an improved protection of the endogenic opioid peptides, in relation with the inhibition not only of the enkephalinase, but also of the aminopeptidases involved in their hydrolysis.

[4] = system: licking reflex of mice on a plate heated at 55° C; assay: Hot plate test: specific antalgic effect; format: in vivo; details: for antalgic effect in the hot plate test: 55° C, intravenous, in words; for ED50: hot plate 55° C, i.v.
Method: as §1
(b) Specific antalgic effect
By the intravenous route.

mice = assay: Subacute toxicity, intraperitoneal, three weeks
Method: The derivative 63 was administered by the intraperitoneal route for three weeks to mice at the dose of 50 mg/kg three times a day (150 mg/kg/day).

[5] = system: (Met^5) enkephalin liberated by depolarisation of striatum sections; assay: Protection of endogenic enkephalins liberated by depolarisation of striatum sections; format: cell-based, rat; details: for (Met^5) liberated enkephalin: 50 mM KCl, no inhibitor: 120 ± 25
Method: (II) Protection of the endogenic […] liberated by depolarisation of the brain sections
Stratium sections of the rat are incubated in a medium of Krebs-Ringer and the (Met^5) enkephalin liberated by addition of 50 mM KCl is evaluated by radioimmunologic dosage (Patey and Coll., Science, 1981, 212, 1153-1155).
The higher protection of the liberated enkephalins afforded by these compounds is thence attributed to the inhibition of peptidases (probably aminopeptidases) other than those which are sensitive to thiorphan.

immobile periods of mice = details: 1 mg/kg i.v.; p<0.001; in words
Excerpt: Forced swimming or "Mice Despair" test according to Porsolt's method.
This test is representative of an antidepressive effect.

blood pressure = details: 10 mg/kg intravenous; in words
Excerpt: (VI) Hypotensive Activity
Specific enkephalin-potentiating activity, (Laubie M. Schmith H., Vincent M., Remon D. Central cardiovascular effects of Morphinometic peptides in dogs. European Journal of Pharmacology, vol. 46, 67-71, 1977).

[6] = 30 mg/kg intravenous, DAla2 Met Enkephalin 10 to 30γ/mouse ivt 15 minutes later
[7] = 30 γ/mouse ivt, D Ala2 Met Enkephalin 0.3 γ/mouse

COC(=O)CNC(=O)[C@H](Cc1ccccc1)NP(=O)(O)O [Derivative 2, N-phosphoryl L-phenylalanine-glycine methyl ester]
IC50 (enkephalinase): 70 nM | increase in the licking time with respect to animals treated with DAla2 Met Enkephalin (0.3γ intraventricular) [1]: 100% | potentiation of DAla2 Met Enkephalin [2, 6]: potentiate very significantly | protection from phenylbenzoquinone-induced pain ([3]; 15 mg/kg i.v.): protect the treated animals from phenylbenzoquinone-induced pain | antagonism of the protective effect by Naloxone ([3]; in words): antagonized by Naloxone | antalgic effect in the hot plate test [4]: have an antalgic effect | ED50 ([4]; Mus musculus, iv, read-out: ED50): 30 mg/kg

COC(=O)CC(=O)NC(Cc1ccccc1)NP(=O)(O)O (stereo not drawn) [Derivative 4, N-phosphoryl, N'-(2-methoxycarbonylacetyl) 1,1-diamino 2-phenyl ethane]
IC50 (enkephalinase): 100 nM

O=CN(O)CC(Cc1ccccc1)C(=O)NCC(=O)NCc1ccc(F)cc1 (stereo not drawn) [Derivative 63, N-(N-hydroxy 3-formamido 2-benzylpropanoyl)-glycine p-fluoro benzylamide]
weight increase rate and signs of toxicity (mice; 50 mg/kg i.p. three times a day (150 mg/kg/day)): did not exhibit any change in the weight increase rate or any sign of toxicity | weight of the organs and anatomic-pathologic examination (mice; 50 mg/kg i.p. three times a day, versus solvent controls): no difference

O=CN(O)CC(Cc1ccccc1)NC(=O)CC(=O)O (stereo not drawn) [Derivative 69]
IC50 (enkephalinase): 7 nM

O=CN(O)CC(Cc1ccccc1)NC(=O)CC(=O)NCc1ccccc1 (stereo not drawn) [Derivative 71]
IC50 (enkephalinase): 200 nM

O=C(O)CNC(=O)C(CS)Cc1ccccc1 (stereo not drawn) [Thiorphan, reference compound]
(Met^5) liberated enkephalin ([5]; added inhibitor 10^-7 M): 280 ± 30 pmol/g/min | recovery of the pentapeptide ([5]; in words, presence of thiorphan): approximately doubled | elimination of the abdominal stretchings of the mouse ([3]; in words, thiorphan even at a heavy dose): never completely eliminates the abdominal stretchings

D Ala2 Met Enkephalin [reference compound]
activity of D Ala2 Met Enkephalin alone ([1]; 0.3 γ/mouse, intraventricular): inactive in itself

N-(2-bensyloxyamino 3-phenyl propanoyl)-glycine isoamylamide [Derivative 22]
IC50 (enkephalinase): 100 nM | increase in the licking time with respect to animals treated with DAla2 Met Enkephalin (0.3γ intraventricular) [1]: 100% | potentiation of DAla2 Met Enkephalin [2, 6]: potentiate very significantly | protection from phenylbenzoquinone-induced pain ([3]; 18 mg/kg i.v.): protect the treated animals from phenylbenzoquinone-induced pain | antagonism of the protective effect by Naloxone ([3]; in words): antagonized by Naloxone | antalgic effect in the hot plate test [4]: have an antalgic effect | ED50 [4]: 18 mg/kg

N-(N-benzyloxy 3-formamido 2-benzyl propnaoyl)-glycine methyl ester [Derivative 39]
(Met^5) liberated enkephalin ([5]; added inhibitor 10^-7 M): 630 ± 50 pmol/g/min | IC50 (enkephalinase): 3 nM | % increase in the licking time with respect to animals treated with D Ala2 Met enkephalin [1, 7]: 300% | ED50 [4]: 25 mg/kg

N-[2-(N-hydroxy carbamoyl 3-phenyl propanoyl]-glycine [Derivative 32]
IC50 (enkephalinase): 5 nM

N-[2-(N-hydroxy carbamoyl) 3-phenyl propanoyl]-glycine methyl ester [Derivative 30]
(Met^5) liberated enkephalin ([5]; added inhibitor 10^-7 M): 600 ± 30 pmol/g/min | IC50 (enkephalinase): 3 nM | antagonism of the potentiating effect by Naloxone ([1]; intraventricular): antagonised by Naloxone | potentiation of the effect of a subactive dosage (0.3γ) of D Ala2 Met Enkephalin ([1]; intraventricular): significantly potentiated | % increase in the licking time with respect to animals treated with D Ala2 Met enkephalin [1, 7]: 320%

N-[2-(N-hydroxy β-trifluoroethyl carboxamido)3-phenyl propanoyl]-glycine [Derivative 53]
duration (in seconds) of the immobile periods with respect to the controls (immobile periods of mice): significantly reduces | IC50 (enkephalinase): 50 nM | increase in the licking time with respect to animals treated with DAla2 Met Enkephalin (0.3γ intraventricular) [1]: 100% | potentiation of DAla2 Met Enkephalin ([2]; 5 mg/kg): also observed | protection from phenylbenzoquinone-induced pain ([3]; 1 mg/kg i.v.): protect the treated animals from phenylbenzoquinone-induced pain | antagonism of the protective effect by Naloxone ([3]; in words): antagonized by Naloxone | antalgic effect in the hot plate test [4]: have an antalgic effect | ED50 [4]: 3 mg/kg | reduction in the blood pressure (blood pressure): reduction in the blood pressure

N-phorphoryl L-alanine-thioproline trifluoroethyl ester [Derivative 21]
(Met^5) liberated enkephalin ([5]; added inhibitor 10^-6 M): 550 ± 40 pmol/g/min | IC50 (enkephalinase): 8 nM | antagonism of the potentiating effect by Naloxone ([1]; intraventricular): antagonised by Naloxone | potentiation of the effect of a subactive dosage (0.3γ) of D Ala2 Met Enkephalin ([1]; intraventricular): significantly potentiated | % increase in the licking time with respect to animals treated with D Ala2 Met enkephalin ([1]; 30 γ/mouse ivt + D Ala2 Met Enkephalin 0.3 γ/mouse + Naloxone 10 mg/kg s.c.): 18% | % increase in the licking time with respect to animals treated with D Ala2 Met enkephalin [1, 7]: 350%
